Publication PMC4335062, “Data-Driven Prediction and Design of bZIP Coiled-Coil Interactions” (PLoS Computational Biology, 2015)
Several values for one entry are separate records, joined by “and”; a condition that tells them apart may be missing. Equal entries are not always repeated. Where two headings read alike, the source gives them in different places. Where no end group is shown, it is not given here.

Tests used:
ATF3 = target: T1, ATF3 (Homo sapiens, UniProt P18847); assay: Direct-binding FRET assay
T1 construct: made in house
T1 sequence (P18847 86-149 limits assumed): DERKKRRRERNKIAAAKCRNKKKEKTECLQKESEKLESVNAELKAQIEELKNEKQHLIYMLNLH
Experimental: (§1) The direct binding assay was performed manually in 384-well plates and is similar to a previously described assay. Wells were filled with 20 μL of 1 mM TCEP-HCl. A 4 μM stock of acceptor protein was made fresh in 1 mM TCEP-HCl, and 20 μL was titrated in 2-fold dilutions over the wells. […] The direct-binding FRET data were fit as previously described. Briefly, the Kd of the designed peptide homodimer was experimentally determined and used with previously determined target homodimer Kd values to determine the heterodimer Kd. The homodimer Kd values used for the human bZIPs were from; experiments done by […] et al. used the same protein constructs for the human bZIP proteins, the same buffer conditions, and the same assay. The fitting used a system of ordinary differential equations to describe the concentrations of homo and heterodimers formed by the donor (D) and acceptor (A) as a function of the heterodimer Kd. MATLAB was used to simulate the binding experiment for different Kd values, and the value that gave the best agreement between simulation and experiment was assigned. A minimum 15% change in the donor fluorescence upon titrating the acceptor peptide from 0 to 1000 nM was required for a fit to be attempted. If this minimum was not met, the interaction was classified as “NS” for no signal change. […] For such curves, we removed the first five points and re-fit the data.

ATF4 = target: T2, ATF4 (Homo sapiens, UniProt P18848); assay: Direct-binding FRET assay; details: Kd
T2 construct: made in house
T2 sequence (P18848 278-341 limits assumed): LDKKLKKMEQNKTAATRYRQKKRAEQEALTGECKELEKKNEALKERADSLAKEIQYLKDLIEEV
Experimental: as §1

CREB1 = target: T3, CREB1 (Homo sapiens, UniProt P16220); assay: Direct-binding FRET assay
T3 construct: made in house
T3 sequence (P16220 269-327 limits assumed): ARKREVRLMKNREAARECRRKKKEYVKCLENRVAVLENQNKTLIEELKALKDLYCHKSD
Experimental: as §1

MAFF = target: T4, MAFF (Homo sapiens, UniProt Q9ULX9); assay: Direct-binding FRET assay
T4 construct: made in house
T4 sequence (Q9ULX9 51-114 limits assumed): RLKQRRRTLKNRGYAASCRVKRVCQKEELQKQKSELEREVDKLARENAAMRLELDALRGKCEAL
Experimental: as §1

NFE2 = target: T5, NFE2 (Homo sapiens, UniProt Q16621); assay: Direct-binding FRET assay
T5 construct: made in house
T5 sequence (Q16621 266-329 limits assumed): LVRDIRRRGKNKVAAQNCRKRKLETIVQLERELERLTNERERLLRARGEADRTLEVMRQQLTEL
Experimental: as §1

NFE2L3 = target: T6, NFE2L3 (Homo sapiens, UniProt Q9Y4A8); assay: Direct-binding FRET assay
T6 construct: made in house
T6 sequence (Q9Y4A8 578-641 limits assumed): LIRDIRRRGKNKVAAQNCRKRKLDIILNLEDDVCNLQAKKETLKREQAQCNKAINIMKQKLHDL
Experimental: as §1

XBP1 = target: T7, XBP1 (Homo sapiens, UniProt P17861); assay: Direct-binding FRET assay
T7 construct: made in house
T7 sequence (P17861 70-133 limits assumed): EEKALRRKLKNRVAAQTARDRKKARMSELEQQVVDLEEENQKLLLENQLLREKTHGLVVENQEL
Experimental: as §1

ATF6B = ATF6B (Homo sapiens, UniProt Q99941); assay: Direct-binding FRET assay; design: made in house; details: Kd
Chain of ATF6B (Q99941 325-388 limits assumed): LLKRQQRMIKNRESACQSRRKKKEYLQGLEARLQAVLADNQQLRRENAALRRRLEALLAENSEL
Experimental: as §1

FOS = FOS (Homo sapiens, UniProt P01100); assay: Direct-binding FRET assay; design: made in house
Chain of FOS (P01100 137-200 limits assumed): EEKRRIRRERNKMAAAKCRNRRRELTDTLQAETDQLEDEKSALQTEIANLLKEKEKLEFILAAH
Experimental: as §1

JUN = JUN (Homo sapiens, UniProt P05412); assay: Direct-binding FRET assay; design: made in house; details: Kd
Experimental: as §1

MAFG = MAFG (Homo sapiens, UniProt O15525); assay: Direct-binding FRET assay; design: made in house
Chain of MAFG (O15525 51-114 limits assumed): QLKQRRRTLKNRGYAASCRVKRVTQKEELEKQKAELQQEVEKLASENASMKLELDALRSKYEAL
Experimental: as §1

ATF4 (human) = ATF4 (human) (UniProt P18848); assay: FRET or BRET; direct-binding FRET in 384-well plates; rhodamine-labelled design (acceptor) titrated 0 to 1 uM into 10 nM fluorescein-labelled bZIP (donor); 150 mM KCl, 50 mM potassium phosphate pH 7.4, 0.1% Tween-20, 0.1% BSA; 37 °C
Chain of ATF4 (human) (P18848 whole entry): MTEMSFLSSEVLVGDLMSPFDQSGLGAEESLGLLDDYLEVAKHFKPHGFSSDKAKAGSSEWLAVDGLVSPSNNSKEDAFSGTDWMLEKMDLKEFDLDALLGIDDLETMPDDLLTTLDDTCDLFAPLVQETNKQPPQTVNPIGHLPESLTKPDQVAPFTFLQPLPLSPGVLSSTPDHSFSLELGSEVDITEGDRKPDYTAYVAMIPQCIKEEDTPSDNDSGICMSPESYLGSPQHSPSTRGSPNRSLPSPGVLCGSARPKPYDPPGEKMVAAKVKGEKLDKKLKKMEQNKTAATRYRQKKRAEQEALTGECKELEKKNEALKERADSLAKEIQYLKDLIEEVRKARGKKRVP

[1] = 4°C, C-terminal fluorescein design as donor, TAMRA target titrated
[2] = 4°C, N-terminal rhodamine design, mean or single
[3] = 23°C, C-terminal fluorescein design as donor, TAMRA target titrated
[4] = 23°C, C-terminal rhodamine design, repeat 1
[5] = 23°C, N-terminal rhodamine design, mean or single
[6] = 37°C, C-terminal fluorescein design as donor, TAMRA target titrated
[7] = 37°C, N-terminal rhodamine design, mean or single
[8] = 4°C, C-terminal rhodamine design, repeat 1

Work on “SIAATLEKEEANLEKMNKKLAAEIESLLKEKDKLESVLNYHE [JUN-d1]” yielded a Kd (ATF3) of over 1000 nM, a Kd (ATF3; [1]) of over 1000 nM and a Kd (ATF3; [2]) of over 1000 nM. The Kd (ATF3; [3]) was over 1000 nM, the Kd (ATF3; [4]) was over 1000 nM and the Kd (ATF3; [5]) was over 1000 nM. It also gave a Kd (ATF3; [6]) of over 1000 nM, a Kd (ATF3; [7]) of over 1000 nM and a Kd (ATF4; [2]) of 592 nM. It also gave a Kd (ATF4; [3]) of 40.1 nM, a Kd (ATF4; [5]) of over 5000 nM and a Kd (ATF4; [6]) of 441 nM. The Kd (ATF4; 37°C, C-terminal rhodamine design, mean or single) was 543 nM, the Kd (ATF4; [7]) was over 1000 nM and the Kd (CREB1) was over 1000 nM. It also gave a Kd (CREB1; [1]) of over 1000 nM, a Kd (CREB1; [8]) of over 1000 nM and a Kd (CREB1; [2]) of over 1000 nM. It also gave a Kd (CREB1; [3]) of over 1000 nM, a Kd (CREB1; [4]) of over 1000 nM and a Kd (CREB1; [5]) of over 1000 nM. It also gave a Kd (CREB1; [6]) of over 1000 nM, a Kd (CREB1; [7]) of over 1000 nM and a Kd (MAFF) of over 1000 nM. It also gave a Kd (MAFF; [8]) of over 1000 nM, a Kd (MAFF; [2]) of over 1000 nM and a Kd (MAFF; [4]) of over 1000 nM. The Kd (MAFF; [5]) was over 1000 nM, the Kd (MAFF; [7]) was over 1000 nM and the Kd (NFE2) was over 1000 nM. It also gave a Kd (NFE2; [1]) of over 1000 nM, a Kd (NFE2; [8]) of over 1000 nM and a Kd (NFE2; [2]) of over 1000 nM. The Kd (NFE2; [3]) was over 1000 nM, the Kd (NFE2; [4]) was over 1000 nM and the Kd (NFE2; [5]) was over 1000 nM. It also gave a Kd (NFE2; [6]) of over 1000 nM, a Kd (NFE2; [7]) of over 1000 nM and a Kd (NFE2L3) of over 1000 nM. The Kd (NFE2L3; [8]) was over 1000 nM, the Kd (NFE2L3; [2]) was over 1000 nM and the Kd (NFE2L3; [4]) was over 1000 nM. The Kd (NFE2L3; [5]) was over 1000 nM, the Kd (NFE2L3; [7]) was over 1000 nM and the Kd (XBP1) was over 1000 nM. The Kd (XBP1; [8]) was over 1000 nM, the Kd (XBP1; [2]) was over 1000 nM and the Kd (XBP1; [4]) was over 1000 nM. It also gave a Kd (XBP1; [5]) of over 1000 nM, a Kd (XBP1; [7]) of over 1000 nM and a Kd (ATF6B; [1]) of 200 to 1000 nM. It also gave a Kd (ATF6B; [8]) of over 1000 nM, a Kd (ATF6B; [2]) of over 1000 nM and a Kd (ATF6B; [3]) of over 1000 nM. The Kd (ATF6B; [4]) was over 1000 nM, the Kd (ATF6B; [5]) was over 1000 nM and the Kd (ATF6B; [6]) was over 1000 nM. For the same molecule, the Kd (ATF6B; 37°C, C-terminal rhodamine design, repeat 1) was over 1000 nM, the Kd (ATF6B; [7]) was over 1000 nM and the Kd (FOS) was over 1000 nM. The Kd (FOS; [1]) was over 1000 nM, the Kd (FOS; [2]) was over 1000 nM and the Kd (FOS; [3]) was over 1000 nM. It also gave a Kd (FOS; [4]) of over 1000 nM, a Kd (FOS; [5]) of over 1000 nM and a Kd (FOS; [6]) of over 1000 nM. It also gave a Kd (FOS; [7]) of over 1000 nM, a Kd (JUN; [1]) of 2.1 nM and a Kd (JUN; 4°C, C-terminal rhodamine design, mean or single) of 1 nM. It also gave a Kd (JUN; [6]) of 16.1 nM, a Kd (MAFG) of over 1000 nM and a Kd (MAFG; [8]) of over 1000 nM. For the same molecule, the Kd (MAFG; [2]) was over 1000 nM, the Kd (MAFG; [4]) was over 1000 nM and the Kd (MAFG; [5]) was over 1000 nM. It also gave a Kd (MAFG; [7]) of over 1000 nM.

B1: ATF4-d1 labeled at the C-terminus (designed binder)
chain: GESKEYKKGSGSNQIKTLRTRLSKLRKDNLQLEKDIANLERKAKDLRAEKEQLEYELGC
modifications: also: C59 label by assay: Rhodamine Red C2-maleimide or fluorescein-5-maleimide
notes: solubility linker after the His6 tag; added to the C-terminus for labeling; one molecule for the rhodamine- and the fluorescein-labelled form; the assay tells which label stood there; also called ATF4-d1-Rhodamine; ATF4-d1-FITC; source: E. coli RP3098, purified (Ni-NTA under denaturing conditions, reverse-phase HPLC)
In the case of B1, the Kd (ATF4 (human)) is reported as 11.3 nM and 9.9 nM and 6.8 nM.

B2: ATF5-d1 labeled at the C-terminus (designed binder)
chain: GESKEYKKGSGSKRIAYLRQRIAELRNENHVLESRIQRMEKEKDALQQDRDHLEYELGC(Rhodamine Red C2‑maleimide)
modifications: not fully specified
In the case of B2, the Kd (ATF4 (human)) is reported as 4.8 nM and 4 nM and 6 nM.
